For assay [1], the system named is ENR+CD organoids (ISC to Paneth cell differentiation). Put plainly: Primary screen: CCh-stimulated lysozyme secretion LYZ.S, 2.5-D 384-well ENR+CD organoid differentiation. The format is cell-based, mouse. The settings on record: primary screen. The text has this:
(§1) High-throughput screening.

A further assay deals with ENR+CD organoids. Put plainly: Primary screen: ATP (CellTiter-Glo 3D, CTG) cell number/viability, 2.5-D 384-well ENR+CD organoids.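 Also: compounds given at plating and again on day 3 over a 6-day differentiation from ENR+CV stem-cell-enriched precursors, ATP measured on day 6, plate median as control.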 In general terms: In ATP-based viability assays light output follows the ATP content of the culture.
For assay [2], the system named is ENR+CD organoids (ISC to Paneth cell differentiation). Put plainly: Primary screen: basal (non-stimulated) lysozyme secretion LYZ.NS, 2.5-D 384-well ENR+CD organoid differentiation. The format is cell-based, mouse.
Description: as §1

The mark [3] stands for this setting: dose 0.08 uM, FC relative to plate median.
The mark [4] stands for this setting: dose 0.40 uM, FC relative to plate median.
[5] abbreviates: dose 2.00 uM, FC relative to plate median.
Setting [6] is: dose 10.00 uM, FC relative to plate median.
The mark [7] stands for this setting: primary screen, dose 0.08 uM, FC relative to plate median.
[8] abbreviates: primary screen, dose 0.40 uM, FC relative to plate median.
The mark [9] stands for this setting: primary screen, dose 2.00 uM, FC relative to plate median.
Setting [10] is: primary screen, dose 10.00 uM, FC relative to plate median.
The mark [11] stands for this setting: primary screen, dose 0.08 uM, standard z score.
Where [12] appears, read: primary screen, dose 0.40 uM, standard z score.
The mark [13] stands for this setting: primary screen, dose 2.00 uM, standard z score.
The mark [14] stands for this setting: primary screen, dose 10.00 uM, standard z score.
The mark [15] stands for this setting: primary screen, standard z score, dose 0.08 uM.
Where [16] appears, read: primary screen, standard z score, dose 0.40 uM.
The mark [17] stands for this setting: primary screen, standard z score, dose 2.00 uM.
Where [18] appears, read: primary screen, standard z score, dose 10.00 uM.

Molecules are shown by their SMILES.

In the case of `COc1cc2c(cc1OC)CN(CCc1ccc(NC(=O)c3cc(OC)c(OC)cc3NC(=O)c3cnc4ccccc4c3)cc1)CC2` [Tariquidar], the Dose.FC.LYZ.S in assay [1] (setting [3]) is listed as 0.040 log2 fold change; in assay [1] (setting [4]) it was 0.073 log2 fold change; in assay [1] (setting [5]), 0.059 log2 fold change; in assay [1] (setting [6]), 0.019 log2 fold change. In addition, the Dose.FC.CTG is reported as −0.117 log2 fold change with ENR+CD organoids (setting [7]), 0.054 log2 fold change in the assay with ENR+CD organoids (setting [8]), 0.376 log2 fold change with ENR+CD organoids (setting [9]) and 0.227 log2 fold change in the assay on ENR+CD organoids (setting [10]). In addition, the Dose.FC.LYZ.NS came to 0.053 log2 fold change in assay [2] (setting [7]), 0.037 log2 fold change in assay [2] (setting [8]), 0.031 log2 fold change in assay [2] (setting [9]) and 0.034 log2 fold change in assay [2] (setting [10]). Also, the Z.LYZ.NS in assay [2] (setting [11]) is listed as 0.465; in assay [2] (setting [12]), 0.326; in assay [2] (setting [13]), 0.270; in assay [2] (setting [14]), 0.292.
For the molecule `CCOC(=O)c1ccc(NC2CCCCC2)c(N)c1` [Ferrostatin-1 (Fer-1)], the Dose.FC.LYZ.S is 0.120 log2 fold change in assay [1] (dose 0.08 uM), 0.207 log2 fold change in assay [1] (dose 0.40 uM), 0.092 log2 fold change in assay [1] (dose 2.00 uM) and −0.018 log2 fold change in assay [1] (dose 10.00 uM). The Dose.FC.CTG in the assay with ENR+CD organoids (primary screen, dose 0.08 uM) is 0.312 log2 fold change; in the assay on ENR+CD organoids (primary screen, dose 0.40 uM), 0.453 log2 fold change; in the assay with ENR+CD organoids (primary screen, dose 2.00 uM), 0.215 log2 fold change; with ENR+CD organoids (primary screen, dose 10.00 uM), −0.046 log2 fold change. Besides, the Z.CTG is given as 0.745 with ENR+CD organoids (setting [15]), 1.082 in the assay with ENR+CD organoids (setting [16]), 0.514 in the assay on ENR+CD organoids (setting [17]) and −0.109 in the assay on ENR+CD organoids (setting [18]). Moreover, the Dose.FC.LYZ.NS in assay [2] (primary screen, dose 0.08 uM) is 0.108 log2 fold change; in assay [2] (primary screen, dose 0.40 uM), 0.116 log2 fold change; in assay [2] (primary screen, dose 2.00 uM), 0.070 log2 fold change; in assay [2] (primary screen, dose 10.00 uM), 0.013 log2 fold change. For the same molecule, the Z.LYZ.NS in assay [2] (setting [15]) worked out at 0.944; in assay [2] (setting [16]) it was 1.012; in assay [2] (setting [17]) it was 0.610; in assay [2] (setting [18]), 0.116.
Regarding `CC(C)(C)c1cnc(CSc2cnc(NC(=O)C3CCNCC3)s2)o1` [SNS-032 (BMS-387032)], the Dose.FC.LYZ.S in assay [1] (setting [3]) is listed as 0.070 log2 fold change; in assay [1] (setting [4]), −0.206 log2 fold change; in assay [1] (setting [5]) it was −0.301 log2 fold change; in assay [1] (setting [6]) it was −0.361 log2 fold change. Besides, the Dose.FC.CTG with ENR+CD organoids (setting [7]) is −0.075 log2 fold change; in the assay on ENR+CD organoids (setting [8]) it was −0.083 log2 fold change; in the assay on ENR+CD organoids (setting [9]), −0.915 log2 fold change; in the assay on ENR+CD organoids (setting [10]), −1.009 log2 fold change. The Z.CTG is −0.180 in the assay with ENR+CD organoids (setting [11]), −0.198 in the assay on ENR+CD organoids (setting [12]), −2.186 with ENR+CD organoids (setting [13]) and −2.411 with ENR+CD organoids (setting [14]). Also, the Dose.FC.LYZ.NS in assay [2] (setting [7]) was 0.049 log2 fold change; in assay [2] (setting [8]), −0.143 log2 fold change; in assay [2] (setting [9]), −0.276 log2 fold change; in assay [2] (setting [10]), −0.254 log2 fold change. The Z.LYZ.NS is 0.428 in assay [2] (setting [11]), −1.241 in assay [2] (setting [12]), −2.399 in assay [2] (setting [13]) and −2.214 in assay [2] (setting [14]).

These data come from patent US20220323406A1, “METHODS AND COMPOSITIONS FOR DIFFERENTIATING STEM CELLS” (Massachusetts Institute of Technology, priority 2019, published 2022).
